Data on four compounds can be found in PMC7000521, “Hazard Characterization of Synthetic Cathinones Using Viability, Monoamine Reuptake, and Neuronal Activity Assays” (Frontiers in Neuroscience, 2020).

Data set [1] concerns rat primary cortical cultures. Put plainly: MEA recordings of spontaneous neuronal network activity. In kind it is cell-based. Conditions: value [CI]. As for the experimental part: Rat pups born of timed-pregnant Wistar rats (Envigo, Horst, Netherlands) were sacrificed on postnatal day 0–1 to prepare cortical cultures grown on MEA plates as described previously ([Zwartsen et al., 2018], [2019]). Briefly, a 50 μL drop of cell suspension was added to each well (1 × 10^5 cells/well) of a 48-well MEA plate (Axion BioSystems Inc., Atlanta, GA, United States, M768-GL1-30Pt200) coated with 0.1% polyethyleneimine (PEI). After 2 h, 450 μL dissection medium was added to each well. The day after the isolation (day in vitro 1; DIV1), 450 μL/well dissection medium was replaced with 450 μL/well glutamate medium. At DIV4, 450 μL/well glutamate medium was replaced with 450 μL/well FBS medium (for medium supplements see [Zwartsen et al., 2018], [2019]). Cultures were kept in FBS medium at 37°C, 5% CO2/95% air atmosphere until use at DIV9-10.
Microelectrode array recordings were performed as described in [Zwartsen et al. (2019)]. In short, neuronal activity was measured using a Maestro 768-channel amplifier (Axion BioSystems Inc., Atlanta, GA, United States). Baseline spontaneous neuronal activity was recorded for 30 min at 37°C, after which wells were exposed to selected synthetic cathinones under sterile conditions. Next, neuronal activity was determined during a 30 min “acute exposure” recording. […] Next, exposure medium was replaced with fresh FBS medium and the plate was incubated for 19 h at 37°C, until the 30 min “washout” recording, i.e., 24 h after the start of the exposure.
Effects of 3-MMC, 4-MMC, 4-MEC, pentedrone, 3-MMCinternet, and 4-MECinternet were tested at 1–1000 μM (final concentration). At the day of exposure, stocks and dilutions were freshly made in NB-A FBS medium (for medium supplements see [Zwartsen et al., 2019]). Data on methylone, α-PVP, and MDPV exposure have been published previously in [Zwartsen et al. (2019)]. For each experimental condition, primary cultures from two to three different isolations were used and tested in four to five plates (Nplates). The number of wells (nwells) represents the number of replicates per condition.
Microelectrode array data were analyzed as described in [Zwartsen et al. (2019)]. In short, parameters of interest after acute exposure were expressed as a percentage of the parameters prior to exposure to obtain a treatment ratio for each well (paired comparison; parameterexposure/parameterbaseline as % of control wells). The parameters after prolonged exposure and washout were also expressed as a percentage of the baseline parameters. Next, treatment ratios were grouped per parameter, condition, drug [e.g., mean spike rate (MSR) 10 μM 3-MMC] and exposure scenario (acute, prolonged, or washout).
Outliers (>mean ± 2×SD) for MSR (5.0%) were used to exclude wells on all parameters. Outliers for mean burst rate (MBR; 2.6%) and mean network burst rate (MNBR; 1.4%) were used to exclude wells on specific parameters (burst, network burst, and synchronicity parameters, or network burst and synchronicity parameters, respectively). Finally, the acute, prolonged, and washout control treatment ratios were set to 100% and treatment ratios of exposed wells were normalized to the average treatment ratio of medium control wells of the corresponding parameter and exposure scenario. Treatment ratios of exposed wells were averaged per parameter (e.g., MSR), condition (e.g., 100 μM), drug (e.g., methylone), and exposure scenario (e.g., acute exposure) and used for further statistical analyses [see [Zwartsen et al. (2019)] for more details on criteria, parameters, and exposure scenarios]. Neuronal activity (as % of control) is expressed as mean ± SEM of nwells from Nplates. As the spike, burst, and network burst rates were among the most sensitive parameters, these parameters are presented in the manuscript. Additional parameters are presented in Supplementary Figure 2.
Concentration–response curves were made for transporter, MEA, and cell viability assays. […]

Another data set addresses T1, hDAT (Homo sapiens, UniProt Q01959).
T1 construct: expressed in transfected cells
The data set is described as follows: Monoamine uptake assay (fluorescent substrate), hDAT. It is filed as cell-based. As for the experimental part:
(§1) Human embryonic kidney (HEK) 293 cells stably expressing human DAT, NET, or SERT (kindly provided by Dr. Hoener from F. Hoffmann-La Roche Ltd., Basel, Switzerland) were cultured as described in [Zwartsen et al. (2017)].
(§2) Uptake activity of hNET, hDAT, and hSERT was measured using the Neurotransmitter Transporter Uptake Assay Kit from MDS Analytical Technologies (Sunnyvale, CA, United States) as described in detail previously ([Zwartsen et al., 2017]). The kit contained a mixture consisting of a fluorescent substrate, which resembles the biogenic amine neurotransmitters, and a masking dye that extinguishes extracellular fluorescence. Uptake of the fluorescent substrate, a measure of neurotransmitter transporter function, increases intracellular fluorescence, while extracellular fluorescence is blocked by the masking dye ([Jorgensen et al., 2008]). The mixture was dissolved in Hank’s Balanced Salt Solution (1×) (HBSS) with 20 mM HEPES, and kept up to 1 week at −20°C.
On day 0, HEK 293 cells were seeded (60,000 cells/well) in clear-bottom black-walled 96-well plates coated with poly-L-lysine (PLL, 50 mg/L). On day 1, cells were pre-incubated with the fluorescent substrate mixture (95 μL/well, comprising of the fluorescent substrate and the extracellular masking dye, dissolved in HBSS) for 12 min (t = −12 to t = 0). During incubation, intracellular fluorescence was measured every 3 min. […] Stock solutions and dilutions were freshly prepared in HBSS (1×) at the day of usage. Effects of 3-MMC, 4-MMC, 4-MEC, methylone, pentedrone, MDPV, 3-MMCinternet, and 4-MECinternet were measured at final concentrations of 0.03–300/1000 μM. Fluorescence was measured with a microplate reader (Tecan Infinite M200 microplate; Tecan Trading Männedorf, Switzerland) at 37°C at 430/515 nm excitation/emission wavelength. For more experimental detail see [Zwartsen et al. (2017)].
Data from the monoamine uptake assay were analyzed as described by [Zwartsen et al. (2017)], with minor modifications. Data for α-PVP were reanalyzed from [Zwartsen et al. (2017)]. In short, the fluorescence of each well was background corrected and uptake was determined per well by calculating the change in fluorescence (ΔFU) at 12 min after drug exposure (t = 12) compared to the fluorescence at the start of exposure (t = 0), as a percentage of the fluorescence at the start of exposure (%ΔFU = ((FUt = 12−FUt = 0)/FUt = 0)∗100%; see [Zwartsen et al., 2017]). Plate-matched control values for each compound (e.g., methylone) above or below two times the standard deviation of the average normalized control value were considered outliers and were removed from analysis (4.8%). Thereafter, uptake in drug-exposed wells was expressed as a percentage of control wells on the same plate and all uptake values were scaled between 0 and 100%. Outliers (>mean ± 2×SD) in exposed groups were removed (2.7%) and uptake (% compared to control) was expressed as mean ± SEM of nwells from Nplates.
Concentration–response curves were made for transporter, MEA, and cell viability assays. To calculate IC50 values, a four-parameter logistic curve with a variable slope was used (Y = Bottom + (Top−Bottom)/(1 + 10∧((LogIC50 − X) ^∗ HillSlo pe))) (GraphPad Prism, version 7.04). When applicable, significance between concentrations and controls (for MEA) and different IC50 values [between different transporters (DAT/NET/SERT), MEA parameters (MSR/MBR/MNBR), exposure settings (acute/prolonged/recovery), and drug grade (pharmaceutical/internet)] were determined using unpaired t-tests (two values) or one-way ANOVA’s followed by a post hoc Dunnet’s test (>2 values). All statistical tests were performed using GraphPad Prism. For recovery of neuronal activity, IC50 values and 95% confidence intervals could not always be determined and are reported as higher than the highest concentration tested (e.g., >1000 μM). […]

Another data set deals with T2, hSERT (Homo sapiens, UniProt P31645).
T2 construct: expressed in transfected cells
T2 sequence (P31645 whole entry): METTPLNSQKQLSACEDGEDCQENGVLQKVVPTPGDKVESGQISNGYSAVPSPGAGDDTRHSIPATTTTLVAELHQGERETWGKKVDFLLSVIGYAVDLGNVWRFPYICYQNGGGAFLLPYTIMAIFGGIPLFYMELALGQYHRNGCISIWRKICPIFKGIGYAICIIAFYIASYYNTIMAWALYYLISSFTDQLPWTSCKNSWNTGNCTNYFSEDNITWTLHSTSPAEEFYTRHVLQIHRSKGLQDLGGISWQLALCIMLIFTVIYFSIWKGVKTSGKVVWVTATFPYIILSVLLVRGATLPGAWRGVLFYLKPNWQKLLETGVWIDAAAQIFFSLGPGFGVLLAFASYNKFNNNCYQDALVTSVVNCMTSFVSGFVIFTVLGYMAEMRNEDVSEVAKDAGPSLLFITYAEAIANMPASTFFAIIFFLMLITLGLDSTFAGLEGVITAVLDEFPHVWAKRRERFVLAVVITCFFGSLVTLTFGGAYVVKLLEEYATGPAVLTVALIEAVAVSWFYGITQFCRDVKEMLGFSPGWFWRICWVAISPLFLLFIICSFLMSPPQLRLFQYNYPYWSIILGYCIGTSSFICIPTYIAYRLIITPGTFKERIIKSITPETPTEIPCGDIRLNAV
Conditions: cited from earlier work.

Data set [2] is described as follows: Brain partitioning factor (BPF). The settings on record: brain concentration divided by blood/serum/plasma concentration from human post mortem reports or animal studies (rat/mice). The text has this: (§3) To correlate reported effect concentrations to expected concentrations in the human brain during recreational use a brain partitioning factor (BPF; […]) was applied, as actual human brain concentrations following recreational drug use are unknown. Expected concentrations in the human brain were estimated by multiplying recreational human blood/serum/plasma concentrations with the BPF. Human recreational blood, serum, or plasma levels were obtained from literature (driving under the influence or accidental non-fatal intoxications). The BPF was determined for each drug by dividing the brain concentration by the blood/serum/plasma concentration found in human post mortem reports, or animal studies (rat/mice) when human data were insufficient.

For data set [3] the following is noted: recreational use (driving under the influence or accidental non-fatal intoxications); ref literature; cited from earlier work.
Another data set concerns the target T3, hNET (Homo sapiens, UniProt P23975).
T3 construct: expressed in transfected cells
Put plainly: Monoamine uptake assay (fluorescent substrate), hNET. It is filed as cell-based. As for the experimental part:
as §1
as §2, with “The mixture was dissolved in Hank’s Balanced Salt Solution (1×) (HBSS) with 20 mM HEPES, and kept up to 1 week at −20°C.” left out
On day 0, HEK 293 cells were seeded (60,000 cells/well) in clear-bottom black-walled 96-well plates coated with poly-L-lysine (PLL, 50 mg/L). […] During incubation, intracellular fluorescence was measured every 3 min. […] Effects of 3-MMC, 4-MMC, 4-MEC, methylone, pentedrone, MDPV, 3-MMCinternet, and 4-MECinternet were measured at final concentrations of 0.03–300/1000 μM. Fluorescence was measured with a microplate reader (Tecan Infinite M200 microplate; Tecan Trading Männedorf, Switzerland) at 37°C at 430/515 nm excitation/emission wavelength. […]

Data set [4] relates to rat primary cortical cultures. Details: method as in Zwartsen et al., 2019. Conditions: 2019, cited from earlier work; for IC50: value [CI], published previously ref Zwartsen et al.
Data set [5] can be described thus: Estimated human brain concentrations and comparison with IC50 values. Conditions: recreational human blood/serum/plasma concentration multiplied with BPF.
Description: as §3
To identify the relevance of effects and potentially harmful drugs, effect concentrations (IC50 values) were related to the estimated human brain concentration during recreational use [(brain), Table 2]. By comparing these concentrations, the most relevant neurotoxic mechanisms of cathinones can be identified. […] Only 4-MEC and MDPV inhibited neuronal activity during acute exposure at concentrations within (MDPV) or close to (4-MEC) the estimated brain concentration.

Setting [6] is: 19 h washout, 24 h after start of exposure, read-out: Neuronal activity IC50, mean burst rate (MBR), recovery.
[7] abbreviates: 19 h washout, 24 h after start of exposure, read-out: Neuronal activity IC50, mean network burst rate (MNBR), recovery.
Setting [8] is: acute exposure 30 min, read-out: Neuronal activity IC50, mean network burst rate (MNBR), acute.
Where [9] appears, read: acute exposure 30 min, read-out: Neuronal activity IC50, mean burst rate (MBR), acute.
Setting [10] is: acute exposure 30 min, read-out: Neuronal activity IC50, mean spike rate (MSR), acute.

One may read the IC50 as the concentration that inhibits the measured activity by half.

Read-outs that look alike come from different tables or passages of the source. Marks after values point to notes of the source that are not given here. Where only a bound is given, the exact number is not on record here.

T1 sequence (Q01959 whole entry): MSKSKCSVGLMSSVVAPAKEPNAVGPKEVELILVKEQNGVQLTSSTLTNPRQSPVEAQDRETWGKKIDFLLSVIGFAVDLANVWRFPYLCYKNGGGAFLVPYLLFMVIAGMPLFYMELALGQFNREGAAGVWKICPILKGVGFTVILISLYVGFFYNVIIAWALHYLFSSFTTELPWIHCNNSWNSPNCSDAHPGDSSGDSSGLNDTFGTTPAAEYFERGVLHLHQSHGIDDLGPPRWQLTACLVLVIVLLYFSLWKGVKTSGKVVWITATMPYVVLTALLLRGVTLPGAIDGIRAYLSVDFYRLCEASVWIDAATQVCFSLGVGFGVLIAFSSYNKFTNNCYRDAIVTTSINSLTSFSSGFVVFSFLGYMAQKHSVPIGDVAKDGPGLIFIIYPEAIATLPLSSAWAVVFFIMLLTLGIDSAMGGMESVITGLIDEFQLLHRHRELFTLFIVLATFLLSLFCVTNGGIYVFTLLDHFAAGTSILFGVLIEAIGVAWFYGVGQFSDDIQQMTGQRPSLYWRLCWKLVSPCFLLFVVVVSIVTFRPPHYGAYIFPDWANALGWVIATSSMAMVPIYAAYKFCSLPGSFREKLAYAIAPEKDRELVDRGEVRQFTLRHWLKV
T3 sequence (P23975 whole entry): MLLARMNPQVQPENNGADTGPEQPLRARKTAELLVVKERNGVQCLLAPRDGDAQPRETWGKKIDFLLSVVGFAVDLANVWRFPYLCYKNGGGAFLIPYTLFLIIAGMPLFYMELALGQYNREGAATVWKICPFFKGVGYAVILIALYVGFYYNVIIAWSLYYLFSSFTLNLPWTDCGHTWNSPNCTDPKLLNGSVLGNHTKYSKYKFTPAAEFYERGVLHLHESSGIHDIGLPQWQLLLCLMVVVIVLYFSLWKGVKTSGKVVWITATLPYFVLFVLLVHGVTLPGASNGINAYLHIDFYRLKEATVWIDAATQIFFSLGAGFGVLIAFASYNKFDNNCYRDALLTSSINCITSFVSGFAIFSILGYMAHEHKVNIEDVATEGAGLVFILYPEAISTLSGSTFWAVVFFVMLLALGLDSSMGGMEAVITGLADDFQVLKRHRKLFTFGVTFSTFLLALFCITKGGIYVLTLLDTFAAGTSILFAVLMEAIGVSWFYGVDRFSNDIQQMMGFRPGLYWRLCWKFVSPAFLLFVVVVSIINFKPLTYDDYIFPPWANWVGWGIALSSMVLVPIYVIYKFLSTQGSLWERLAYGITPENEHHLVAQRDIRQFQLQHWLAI

Consider `CNC(C)C(=O)c1cccc(C)c1` (stereo not shown) [3-MMCinternet], for which the IC50 in data set [1] (setting [6]) was > 1000 µM; in data set [1] (setting [7]), > 1000 µM; in data set [1] (setting [8]), 57 µM.
`CCNC(C)C(=O)c1ccc(C)cc1` (stereo not shown) [4-MECinternet]: the concentration for half-maximal inhibition (IC50) in data set [1] (setting [6]) was > 1000 µM; in data set [1] (setting [7]), > 1000 µM; in data set [1] (setting [9]), 79 µM; in data set [1] (setting [8]), 79 µM; in data set [1] (setting [10]), 70 µM; at hDAT (HEK 293 cells, 37°C, uptake at 12 min after drug exposure, value [CI], read-out: Transporter inhibition IC50, hDAT) it was 1.7 µM.
As for `CNC(C)Cc1ccc2c(c1)OCO2` (stereo not shown) [MDMA, 3,4-methylenedioxymethamphetamine], the “Increase in potency to inhibit hSERT” value at hSERT is “threefold”.
For the compound `CNC(C)C(=O)c1ccc2c(c1)OCO2` (stereo not shown) [Methylone, 1-(1,3-benzodioxol-5-yl)-2-(methylamino)propan-1-one], in data set [2], the “Brain partitioning factor (BPF)” value is 1.4–4.5^5,^–6,^7. Further, the “Human (serum/blood/plasma) concentration” value in data set [3] is given as 0.01–18^a,d,g,h μM. Further, the half-inhibitory concentration (IC50) is 1.7 µM on hNET; 2 µM on hDAT; 266 µM in data set [4] (setting [9]); 323 µM in data set [4] (setting [8]); 244 µM in data set [4] (setting [10]); 322 µM in data set [4] (prolonged exposure 4.5 h, read-out: Neuronal activity IC50, mean burst rate (MBR), prolonged). In addition, the IC50 is 362 µM in data set [4] (prolonged exposure 4.5 h, read-out: Neuronal activity IC50, mean network burst rate (MNBR), prolonged); 283 µM in data set [4] (prolonged exposure 4.5 h, read-out: Neuronal activity IC50, mean spike rate (MSR), prolonged); > 1000 µM in data set [4] (washout, 24 h after start of exposure, read-out: Neuronal activity IC50, mean burst rate (MBR), recovery); > 1000 µM in data set [4] (washout, 24 h after start of exposure, read-out: Neuronal activity IC50, mean network burst rate (MNBR), recovery); > 1000 µM in data set [4] (washout, 24 h after start of exposure, read-out: Neuronal activity IC50, mean spike rate (MSR), recovery). Also, in data set [4] (methylone versus MDMA, ref Zwartsen et al.), the “Reduction of potency to inhibit neuronal activity compared to MDMA” value was “threefold”. Besides, the “Estimated human (brain) concentration” value in data set [5] is 0.01 to 81 µM.
